Experimental findings from patent US6503935B1, “Imidazoles and related compounds as α1A agonists” (Abbott Laboratories, priority 1998, dated 2003) are described below.

Where a name gives a salt, the structure may show the parent alone. Read-outs that look alike come from different tables or passages of the source.

Data set [1] has as its target T1, α1b (hamster receptor expressed in mouse fibroblasts) (Mesocricetus auratus, UniProt P18841).
T1 construct: expressed in transfected cells; host or cells: mouse fibroblasts
T1 sequence (P18841 1-515): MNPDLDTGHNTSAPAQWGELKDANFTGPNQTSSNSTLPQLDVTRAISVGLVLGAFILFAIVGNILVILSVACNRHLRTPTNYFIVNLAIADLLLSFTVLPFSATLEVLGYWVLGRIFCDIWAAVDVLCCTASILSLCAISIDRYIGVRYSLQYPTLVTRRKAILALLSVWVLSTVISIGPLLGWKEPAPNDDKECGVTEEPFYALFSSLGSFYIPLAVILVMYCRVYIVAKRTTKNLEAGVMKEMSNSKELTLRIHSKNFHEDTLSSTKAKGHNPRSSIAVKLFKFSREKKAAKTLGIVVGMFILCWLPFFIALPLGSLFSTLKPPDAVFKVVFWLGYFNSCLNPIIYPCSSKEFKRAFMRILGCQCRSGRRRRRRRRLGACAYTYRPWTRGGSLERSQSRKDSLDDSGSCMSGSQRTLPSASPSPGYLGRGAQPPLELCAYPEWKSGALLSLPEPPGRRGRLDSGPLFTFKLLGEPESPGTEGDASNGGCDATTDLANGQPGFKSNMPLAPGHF
As to the kind of experiment: Radioligand binding with [3H]-prazosin, α1b. Put shortly: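 Radioligand binding with [3H]-prazosin: α1A from rat submaxillary gland; α1b hamster receptor and α1d rat receptor, each expressed in mouse fibroblasts.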

Setting [2] is: hamster receptor expressed in mouse fibroblasts, [3H]-prazosin, read-out: Radioligand Binding Ki α1b (Hamster).

With `CCS(=O)(=O)Nc1cccc(Cc2c[nH]cn2)c1C.O=C(O)/C=C\C(=O)O` [Example 29, N-[3-(1H-imidazol-4-ylmethyl)-2-methylphenyl]ethanesulfonamide, maleate], in data set [1], the Ki is 3880 nM.

In the case of `CS(=O)(=O)Nc1cccc(Cc2c[nH]cn2)c1.O=C(O)/C=C\C(=O)O` [Example 21, N-[3-(1H-imidazol-4-ylmethyl)phenyl]methanesulfonamide, maleate], the melting point lay in the range of 142 to 144 °C. Besides, affinity in data set [1] was put at a Ki of 1270 nM.

Take `C=C(c1cccc(NS(=O)(=O)CC)c1)c1c[nH]cn1` [Example 45, N-{3-[1-(1H-imidazol-4-yl)vinyl]phenyly}ethanesulfonamide, maleate]: the Ki in data set [1] worked out at 1730 nM.

With `CCS(=O)(=O)Nc1cccc2c1CCCC2c1c[nH]cn1.O=C(O)/C=C\C(=O)O` (stereo not drawn) [Example 12, N-[5-(1H-imidazol-4-yl)-5,6,7,8-tetrahydro-1-naphthalenyl]ethanesulfonamide, maleate], the Ki in data set [1] (setting [2]) worked out at 6980 nM.

As to `CCS(=O)(=O)Nc1cccc2c1CCCC2c1c[nH]cn1.O=C(O)/C=C\C(=O)O` (single isomer, unassigned; (+)) [Example 33, (+)-N-[5-(1H-imidazol-4-yl)-5,6,7,8-tetrahydro-1-naphthalenyl]ethanesulfonamide, maleate], the Ki in data set [1] (setting [2]) worked out at 1300 nM.

One may read the Ki as a measure of affinity in units of concentration, obtained from inhibition or displacement. As a reminder, the melting point is the temperature, or range, at which the solid turns liquid.
